Test results taken from PMC10056348, “Photocaged Histone Deacetylase Inhibitors as Prodrugs in Targeted Cancer Therapy” (Pharmaceuticals, 2023).
Values belong to the compound of their own block, whether it stands above or below them.

Experiments:
[1] = tested on: acetyl-α-tubulin in MV-3 cells; experiment: Immunoblot of acetyl-α-tubulin (marker of HDAC6 inhibition); format: cell-based; details: 24 h, 3.1 µM
Description: MV-3 cells were seeded to cell culture flasks and cultured for 48 h. Aliquots of the DMSO stock solution (10 mM) designated for photolysis were irradiated for 10 min with the UV reactor (see Section 4.3). The cells were treated with the stock solutions, processed with or without irradiation, of the indicated concentration or vehicle (DMSO) for 24 h. Cell lysis was performed with Cell Extraction Buffer (10 mM Tris, pH 7.4, 100 mM NaCl, 1 mM EDTA, 1 mM EGTA, 1 mM NaF, 20 mM Na4P2O7, 2 mM Na3VO4, 1% Triton™ ×-100, 10% glycerol, 0.1% SDS, 0.5% deoxycholate; Catalog# FNN0011, Thermo Fisher Scientific Inc., Waltham, MA, USA) and addition of Halt Protease Inhibitor Cocktail (100×) (Catalog# 78429, Life Technologies GmbH Carlsbad, CA, USA) and phenylmethanesulfonyl fluoride (Catalog# 10837091001, Sigma-Aldrich, St. Louis, MO, USA) according to manufacturer instructions. Protein content was determined by Pierce™ BCA Protein Assay Kit (Catalog# 23225, Thermo Fisher Scientific Inc., Waltham, MA, USA) according to manufacturer guidelines. Samples were denatured by Laemmli 2× Concentrate (Catalog# S3401-10VL, Sigma-Aldrich, St. Louis, MO, USA), and Precision Plus Protein Unstained Standard was used as molecular weight marker (Catalog# 1610363, Bio-Rad, Hercules, CA, USA). SDS-PAGE was performed with 10% Mini-PROTEAN TGX Stain-Free Gel at 200 V for 50 min (Catalog# 458035, Bio-Rad, Hercules, CA, USA). Afterwards, proteins were transferred with the Trans-Blot Turbo Transfer System (Catalog# 1704150, Bio-Rad, Hercules, CA, USA) to Immobilon-FL PVDF membranes (Catalog# IPFL00005, Millipore Merck, Burlington, MA, USA) at 1.0 A for 30 min and incubated with 5% milk-powder solution for 1 h at room temperature under slight agitation. Subsequently, the membranes were incubated with anti-acetyl-histone H3 (Catalog# 9677S, Cell Signaling Technology, Denver, MA, USA), anti-acetyl-α-tubulin (Catalog#5335, Cell Signaling Technology, Denver, MA, USA), and anti-GAPDH (Catalog# T0004, Affinity Biosciences, Cincinnati, OH, USA) in 1:1000–1:10000 dilutions at 4 °C, overnight. […]

HepG2 cancer cell line = tested on: HepG2 cancer cell line; design: method as in PMID 30664827; details: cited from earlier work
MV-3 cell line = experiment: MTT cell viability assay, MV-3; format: cell-based
Description: The amelanotic melanoma cell line MV-3 was obtained from EPO GmbH Berlin-Buch. The human ovarian carcinoma cell line A2780 was obtained from the European Collection of Cell Cultures (ECACC, Salisbury, UK). The cell lines were cultivated in RPMI 1640 medium supplemented with 10% fetal bovine serum and 50 U/mL penicillin and 50 µg/mL streptomycin and incubated at 37 °C under humidified air with 5% CO2 to 80–90% confluency before being used in further assays.
For this, 200-fold dilution series of the compounds of the respective stock solutions in DMSO (10 mM) were prepared in DMSO using clear U-bottom 96-well microplates (Greiner Bio-One, Greiner AG, Kremsmünster, Austria). Predilutions intended for photolysis experiments were irradiated for 10 min in the UV reactor described above. Thereafter, all predilutions were further diluted 1:200 in medium and provided in clear sterile F-bottom 96-well plates (Starlab GmbH, Hamburg, Germany). MV-3 cells were added at a density of 3000 cells/well and A2780 cells at a density of 8000 cells/well. The cells were added directly and without prior attachment. Final volume was 200 µL, and the final DMSO concentration was 0,5%. After 72 h, 40 µL MTT (3-(4,5-dimethylthiazol-2-yl)-2,5-diphenyltetrazolium bromide; BioChemica, Applichem GmbH, Darmstadt, Germany ) solution (5 mg/mL in phosphate-buffered saline) was added to determine cell survival. The formazan dye was dissolved in DMSO (Sigma-Aldrich, Steinheim, Germany) after 1 h, and absorbance was measured at 570 nm and 690 nm using a Multiskan microplate photometer (Thermo Fisher Scientific, Waltham, MA, USA). Concentration-effect curves were generated using the four-parameter logistic equation (GraphPad Prism 9.0, San Diego, CA, USA), and mean IC50 values were determined by nonlinear regression based on at least three distinct experiments in duplicates.

[2] = tested on: acetyl-histone H3 in MV-3 cells; experiment: Immunoblot of acetyl-histone H3 (marker of HDAC1-3 inhibition); format: cell-based; details: 24 h, 3.1 µM, after UV irradiation (365 nm, 10 min)
Description: MV-3 cells were seeded to cell culture flasks and cultured for 48 h. Aliquots of the DMSO stock solution (10 mM) designated for photolysis were irradiated for 10 min with the UV reactor (see Section 4.3). The cells were treated with the stock solutions, processed with or without irradiation, of the indicated concentration or vehicle (DMSO) for 24 h. Cell lysis was performed with Cell Extraction Buffer (10 mM Tris, pH 7.4, 100 mM NaCl, 1 mM EDTA, 1 mM EGTA, 1 mM NaF, 20 mM Na4P2O7, 2 mM Na3VO4, 1% Triton™ ×-100, 10% glycerol, 0.1% SDS, 0.5% deoxycholate; Catalog# FNN0011, Thermo Fisher Scientific Inc., Waltham, MA, USA) and addition of Halt Protease Inhibitor Cocktail (100×) (Catalog# 78429, Life Technologies GmbH Carlsbad, CA, USA) and phenylmethanesulfonyl fluoride (Catalog# 10837091001, Sigma-Aldrich, St. Louis, MO, USA) according to manufacturer instructions. Protein content was determined by Pierce™ BCA Protein Assay Kit (Catalog# 23225, Thermo Fisher Scientific Inc., Waltham, MA, USA) according to manufacturer guidelines. Samples were denatured by Laemmli 2× Concentrate (Catalog# S3401-10VL, Sigma-Aldrich, St. Louis, MO, USA), and Precision Plus Protein Unstained Standard was used as molecular weight marker (Catalog# 1610363, Bio-Rad, Hercules, CA, USA). […]

[3] = Photo-uncaging efficiency (HPLC after irradiation at 365 nm); format: physicochemical; details: 10 min
Description: Photolysis (photo-uncaging) of photocaged HDACi prodrugs was performed at room temperature using a UVP CL-1000 Crosslinker (Analytik Jena GmbH, Jena, Germany) equipped with five UV-A tubes (F8T5/BL368; λmax = 365 nm; Analytik Jena GmbH, Jena, Germany). Hereafter, this entire experimental set-up will be referred to as the “UV reactor”.
For the photo-uncaging efficiency testing, 10 µL of a 1.0 mM DMSO solution of the respective compound was irradiated for 10 min using the UV reactor described above. Subsequently, 90 µL acetonitrile was added, and the samples were analyzed via HPLC. The amount of photo-cleaved HDACi was determined by comparison with a five-point calibration curve of the respective parent inhibitor, using HPLC/UV detection at an appropriate wavelength (area under the curve; area mAu*min).
2. Photouncaging Experiments
Photolysis (photouncaging) of photocaged HDACi prodrugs was performed at room temperature using an UVP CL-1000 Crosslinker (Analytik Jena GmbH, Jena, Germany) equipped with five UV-A tubes (F8T5/BL368; λmax = 365 nm; Analytik Jena GmbH, Jena, Germany). Hereafter, this entire experimental set-up will be referred to as the "UV-reactor".
For the deprotection experiments 10 µL of a 1.0 mM DMSO-solution of the respective compound were irradiated for 10 min using the UV-reactor described above. Subsequently, 90 µL acetonitrile were added and the samples were analyzed via HPLC. The amount of photo-cleaved HDACi was determined by comparison with a five-point calibration curve of the respective parent inhibitor using HPLC/UV detection at an appropriate wavelength (area under the curve; area mAu*min).
Figure S5. Calibration curve of DDK-137 (I).

SMILES: CN(C)c1ccc(C(=O)N(CC(=O)NCc2ccccc2)Cc2ccc(C(=O)NO)cc2)cc1 [I, N-[2-(benzylamino)-2-oxoethyl]-4-(dimethylamino)-N-[4-(hydroxycarbamoyl)-benzyl]-benzamide]
level of acetylated α-tubulin ([1]; without UV irradiation): strong hyperacetylation
antiproliferative activity against HepG2 (HepG2 cancer cell line): submicromolar antiproliferative activity
IC50 (MV-3 cell line; MV-3, light or radiation study, MTT, 72 h, without UV irradiation): 616 ± 161 nM

yield of photo-released parent inhibitor ([3]; DMSO, HPLC with calibration curve): 82%
concentration of photo-released parent inhibitor after irradiation ([3]; initial concentration 100 µM): 81.5 µM
SMILES: COc1cc(CONC(=O)c2ccc(CN(CC(=O)NCc3ccccc3)C(=O)c3ccc(N(C)C)cc3)cc2)c([N+](=O)[O-])cc1OC [pc-I, N-[2-(Benzylamino)-2-oxoethyl]-N-(4-{[(4,5-dimethoxy-2-nitrobenzyl)oxy]carbamoyl}benzyl)-4-(dimethylamino)benzamide]
level of acetyl-histone H3 [2]: higher amount of acetyl-histone-H3
level of acetylated α-tubulin ([1]; after UV irradiation (365 nm, 10 min)): increased level of acetyl-α-tubulin
level of acetylated α-tubulin ([1]; without UV irradiation): no increased levels of acetylated α-tubulin
IC50 (MV-3) (MV-3 cell line; MTT, 72 h, without UV irradiation): n.e. ^b (n.e— no effect: <25% inhibition at 25 µM)
IC50 (MV-3 cell line; MV-3, light or radiation study, MTT, 72 h, after UV irradiation (365 nm, 10 min)): 727 ± 133 nM
inhibition at 25 µM (MV-3 cell line; MV-3, light or radiation study, at 25 µM, without UV irradiation): < 25%
